From PMC7180572, “5-Alkylamino-N-phenylpyrazine-2-carboxamides: Design, Preparation, and Antimycobacterial Evaluation” (Molecules, 2020)
In brackets after ≈: the same amount, converted by molar mass. Where two headings read alike, the source gives them in different places.

Columns and labels:
[1] = type: physicochemical
Method: As a complementary test, final compounds were tested for in vitro activity against selected fungal and bacterial pathogens of clinical importance. The microdilution broth method was performed according to The European Committee on Antimicrobial Susceptibility Testing (EUCAST) instructions with slight modifications. The minimum inhibitory concentration was expressed in µM. Not all compounds were evaluated due to the fact of a problem with solubility which occurred for 18 samples. […] See Supplementary Materials for the list of tested strains, methodology, and full results.

HepG2 cells = assay: HepG2 cytotoxicity, CellTiter 96 (MTS) assay; type: cell-based, human; conditions: for IC50: Homo sapiens, read-out: HepG2 IC50
[2] = test system: Mycobacterium tuberculosis H37Ra ITM-M006710 (ATCC 9431); assay: Microdilution broth, modified Microplate Alamar Blue Assay, whole cell growth inhibition; type: cell-based; conditions: Mycobacterium tuberculosis; in vitro, Middlebrook 7H9 broth, resazurin; read-out: MIC Mtb H37Ra
[3] = test system: Mycobacterium aurum DSM 43999 (ATCC 23366); assay: as above; type: cell-based; conditions: Mycolicibacterium aurum, read-out: MIC Mycobacterium aurum
[4] = test system: Mycobacterium smegmatis DSM 43465 (ATCC 607); assay: Microdilution broth, modified Microplate Alamar Blue Assay, whole cell growth inhibition; type: cell-based; conditions: Mycolicibacterium smegmatis, read-out: MIC Mycobacterium smegmatis
[5] = test system: Acinetobacter baumanii ATCC 19606, DSM 30007; assay: Antibacterial microdilution broth method (EUCAST); type: cell-based; conditions: Acinetobacter baumannii
[6] = test system: Trichophyton interdigitale ATCC 9533, CCM 8377; assay: Antifungal microdilution broth method (EUCAST); type: cell-based; conditions: read-out: MIC TI
[7] = test system: Absidia corymbifera CCM 8077 (Lichtheimia corymbifera); assay: Antifungal microdilution broth method (EUCAST); type: cell-based; conditions: read-out: MIC AC
[8] = test system: Staphylococcus aureus spp.aureus ATCC 29213, CCM 4223; assay: Antibacterial microdilution broth method (EUCAST); type: cell-based; conditions: read-out: MIC SA
[9] = test system: Candida parapsilosis ATCC 22019, CCM 8260; assay: Antifungal microdilution broth method (EUCAST); type: cell-based; conditions: Lodderomyces parapsilosis, read-out: MIC CP
[10] = test system: Aspergillus fumigatus ATCC 204305; assay: Antifungal microdilution broth method (EUCAST); type: cell-based; conditions: read-out: MIC AF
[11] = test system: Candida krusei ATCC 6258, CCM 8271; assay: Antifungal microdilution broth method (EUCAST); type: cell-based; conditions: Pichia kudriavzevii, read-out: MIC CK
[12] = test system: Staphylococcus aureus methicillin resistant ATCC 43300, CCM 4750; assay: microbe, parasite or virus in culture; type: cell-based; conditions: ATCC 43300 / CCM 4750 / MRSA, read-out: MIC MRSA
[13] = test system: Staphylococcus epidermidis ATCC 12228, CCM 4418; assay: Antibacterial microdilution broth method (EUCAST); type: cell-based; conditions: read-out: MIC SE
[14] = test system: Enterococcus faecalis ATCC 29212, CCM 4224; assay: Antibacterial microdilution broth method (EUCAST); type: cell-based; conditions: read-out: MIC EF
[15] = test system: Candida albicans ATCC 24433, CCM 8320; assay: Antifungal microdilution broth method (EUCAST); type: cell-based; conditions: read-out: MIC CA
[16] = test system: Aspergillus flavus CCM 8363; assay: Antifungal microdilution broth method (EUCAST); type: cell-based; conditions: read-out: MIC AFla
[17] = test system: Pseudomonas aeruginosa ATCC 27853, CCM 3955; assay: Antibacterial microdilution broth method (EUCAST); type: cell-based; conditions: read-out: MIC PA
[18] = test system: Escherichia coli ATCC 25922, CCM 3954; assay: Antibacterial microdilution broth method (EUCAST); type: cell-based; conditions: read-out: MIC EC
[19] = test system: Candida tropicalis ATCC 750, CCM 8264; assay: Antifungal microdilution broth method (EUCAST); type: cell-based; conditions: read-out: MIC CT
[20] = test system: Klebsiella pneumoniae ATCC 10031, CCM 4415; assay: Antibacterial microdilution broth method (EUCAST)
[21] = HepG2, 24 h incubation, > means higher concentration not reproducible due to precipitation
[22] = in vitro, Middlebrook 7H9 broth, resazurin

## CCCCCNc1cnc(C(=O)Nc2cccc(O)c2)cn1 [Compound 2c, N-(3-hydroxyphenyl)-5-(pentylamino)pyrazine-2-carboxamide]
[1]
  Solubility problem in antibacterial/antifungal testing: precipitated in both growth media
HepG2 cells; [21]
  IC50: > 10 µM
[2]
  MIC: ≥ 500 µg/mL
[3]; [22]
  MIC: ≥ 500 µg/mL
other
  melting point: 224.8 to 226.1 °C
[4]; [22]
  MIC: ≥ 500 µg/mL

## CCCCCCNc1cnc(C(=O)Nc2cccc(O)c2)cn1 [Compound 2d, 5-(Hexylamino)pyrazine-N-(3-hydroxyphenyl)-2-carboxamide]
[1]
  Solubility problem in antibacterial/antifungal testing: precipitated in both growth media
HepG2 cells; [21]
  IC50: > 10 µM
[2]
  MIC: ≥ 500 µg/mL
[3]; [22]
  MIC: ≥ 500 µg/mL
other
  melting point: 225 to 226 °C
[4]; [22]
  MIC: ≥ 500 µg/mL

## CCCCCCCNc1cnc(C(=O)Nc2cccc(O)c2)cn1 [Compound 2e, 5-(Heptylamino)pyrazine-N-(3-hydroxyphenyl)-2-carboxamide]
[1]
  Solubility problem in antibacterial/antifungal testing: precipitated in both growth media
HepG2 cells; [21]
  IC50: > 10 µM
[2]
  MIC: ≥ 500 µg/mL
[3]; [22]
  MIC: ≥ 500 µg/mL
other
  melting point: 222 to 223 °C
[4]; [22]
  MIC: 250 µg/mL (≈ 761 µM)

## CCCNc1cnc(C(=O)Nc2ccc(C)cc2)cn1 [Compound 4a, 5-(Propylamino)-N-(p-tolyl)pyrazine-2-carboxamide]
[1]
  Solubility problem in antibacterial/antifungal testing: precipitated in both growth media
HepG2 cells; [21]
  IC50: > 100 µM
HepG2 cells; IC50 (HepG2)/MIC against Mtb H37Ra (in µM)
  SI, selectivity index: >1.73
[2]
  MIC: 15.6 µg/mL (≈ 57.8 µM)
[3]; [22]
  MIC: ≥ 500 µg/mL
other
  melting point: 168 to 169 °C
[4]; [22]
  MIC: 31.2 µg/mL (≈ 116 µM)

## CCCCNc1cnc(C(=O)Nc2ccc(CC)cc2)cn1 [Compound 5b, 5-(Butylamino)pyrazine-N-(4-ethylphenyl)-2-carboxamide]
[1]
  Solubility problem in antibacterial/antifungal testing: precipitated in both growth media
HepG2 cells; [21]
  IC50: > 50 µM
[2]
  MIC: ≥ 500 µg/mL
[3]; [22]
  MIC: ≥ 500 µg/mL
other
  melting point: 133.8 to 134.8 °C
[4]; [22]
  MIC: ≥ 500 µg/mL

## CCCCCNc1cnc(C(=O)Nc2ccc(CC)cc2)cn1 [Compound 5c, N-(4-ethylphenyl)-5-(pentylamino)pyrazine-2-carboxamide]
[1]
  Solubility problem in antibacterial/antifungal testing: precipitated in both growth media
HepG2 cells; [21]
  IC50: > 25 µM
[2]
  MIC: ≥ 500 µg/mL
[3]; [22]
  MIC: ≥ 500 µg/mL
other
  melting point: 136.1 to 137.1 °C
[4]; [22]
  MIC: ≥ 500 µg/mL

## CCCCCCNc1cnc(C(=O)Nc2ccc(CC)cc2)cn1 [Compound 5d, N-(4-ethylphenyl)-5-(hexylamino)pyrazine-2-carboxamide]
[5]; 24h
  MIC: > 500 µM
[5]; 48h
  MIC: > 500 µM
[6]; 72 h
  MIC: > 125 µM
[6]; 120 h
  MIC: > 125 µM
[7]; CCM8077, 24 h
  MIC: > 125 µM
[7]; CCM8077, 48 h
  MIC: > 125 µM
[8]; 24 h
  MIC: > 500 µM
[8]; 48 h
  MIC: > 500 µM
[9]; 24 h
  MIC: > 125 µM
[9]; 48 h
  MIC: > 125 µM
[10]; ATCC204305, 24 h
  MIC: > 125 µM
[10]; ATCC204305, 48 h
  MIC: > 125 µM
[11]; 24 h
  MIC: > 125 µM
[11]; 48 h
  MIC: > 125 µM
HepG2 cells; HepG2, 24 h
  IC50: > 25 µM
[12]; 24 h
  MIC: > 500 µM
[12]; 48 h
  MIC: > 500 µM
[13]; 24 h
  MIC: > 500 µM
[13]; 48 h
  MIC: > 500 µM
[2]
  MIC: ≥ 500 µg/mL
[3]
  MIC: ≥ 500 µg/mL
[14]; 24 h
  MIC: > 500 µM
[14]; 48 h
  MIC: > 500 µM
[15]; 24 h
  MIC: > 125 µM
[15]; 48 h
  MIC: > 125 µM
other
  melting point: 138 to 139 °C
[16]; CCM8363, 24 h
  MIC: > 125 µM
[16]; CCM8363, 48 h
  MIC: > 125 µM
[17]; 72 h
  MIC: > 500 µM
[17]; 120 h
  MIC: > 500 µM
[18]; 24 h
  MIC: > 500 µM
[18]; 48 h
  MIC: > 500 µM
[4]
  MIC: ≥ 500 µg/mL
[19]; 24 h
  MIC: > 125 µM
[19]; 48 h
  MIC: > 125 µM
[20]; 24h
  MIC KP: > 500 µM
[20]; 48h
  MIC KP: > 500 µM
